In ChEMBL document CHEMBL1129138, “Nucleosides and nucleotides. 152. 1-(3-C-Ethynyl--D-ribo-pentofuranosyl)uracil as a broad spectrum antitumor nucleoside” (Bioorg Med Chem Lett, 1996) one finds IC50, Tumor inhibition ratio and Ratio data, which are given here for four compounds.

One assay has as its system PANC-1. Put plainly: Compound was tested for its inhibitory effect on the growth of PANC-1 tumor cell line from pancreas. The format is functional, cell-based. As to conditions: Homo sapiens.
The test system of the next assay is SNU-C2A. Put plainly: Compound was tested for its inhibitory effect on the growth of […] tumor cell line from colon. The assay is classed as functional, cell-based. As to conditions: Homo sapiens.
The subject of a further assay is MKN-28. Put plainly: Compound was tested for its inhibitory effect on the growth of MKN-28 tumor cell line from stomach. The format is functional, cell-based. As to conditions: Homo sapiens.
Another assay has as its system SW48. The assay can be described thus: Compound was tested for its inhibitory effect on the growth of SW-48 tumor cell line from colon. The assay is classed as functional, cell-based. As to conditions: Homo sapiens.
Assay [1] concerns DLD-1. Put plainly: Compound was tested for its inhibitory effect on the growth of DLD-1 tumor cell line from colon. The format is functional, cell-based. As to conditions: Homo sapiens.
Assay [2] deals with AZ-521 cell line. Put plainly: Compound was tested for its inhibitory effect on the growth of AZ-521 tumor cell line from stomach. The format is functional, cell-based. The following applies: Homo sapiens.
For another assay, the system named is A549. The assay can be described thus: Compound was tested for its inhibitory effect on the growth of A-549 tumor cell line from lung. The format is functional, cell-based. The following applies: Homo sapiens.
In another assay the test system is COLO 320DM. Put plainly: Compound was tested for its inhibitory effect on the growth of COLO 320DM tumor cell line from colon. The format is functional, cell-based. As to conditions: Homo sapiens.
The test system of a further assay is HT-1080. Put plainly: Compound was tested for its inhibitory effect on the growth of HT1080 sarcoma tumor cell line. The assay is classed as functional, cell-based. The following applies: Homo sapiens.
A further assay has as its system MKN-45. Put plainly: Compound was tested for its inhibitory effect on the growth of MKN-45 tumor cell line from stomach. As to conditions: Homo sapiens. The format is functional, cell-based.
For another assay, the system named is T-24. Put plainly: Compound was tested for its inhibitory effect on the growth of T24 tumor cell line from bladder. The format is functional, cell-based. As to conditions: Homo sapiens.
A further assay concerns NUGC-3. The assay can be described thus: Compound was tested for its inhibitory effect on the growth of NUGC-3 tumor cell line from stomach. The following applies: Homo sapiens. The format is functional, cell-based.
A further assay relates to HCT-15. The assay can be described thus: Compound was tested for its inhibitory effect on the growth of HCT-15 tumor cell line from colon. As to conditions: Homo sapiens. The format is functional, cell-based.
A further assay relates to KKLS. Put plainly: Compound was tested for its inhibitory effect on the growth of KKLS tumor cell line from stomach. As to conditions: Homo sapiens. The format is functional, cell-based.
Assay [3] concerns AZ-521 cell line. Put plainly: Compound was tested for its percentage inhibitory effect on the growth of AZ-521 tumor cell line from stomach at an iv dose of 2 mh/kg x10. The assay is classed as functional, Homo sapiens.
Assay [4] has as its system H-81. The assay can be described thus: Compound was tested for its percentage inhibitory effect on the growth of H-81 tumor cell line from stomach at an iv dose of 15 mg/kg x14. The assay is classed as functional, Homo sapiens.
Assay [5] concerns BXPC-3. Put plainly: Compound was tested for its percentage inhibitory effect on the growth of BxPC-3 tumor cell line from […] at an iv dose of 15 mg/kg x14. The assay is classed as functional, Homo sapiens.
Assay [6] deals with DLD-1. The assay can be described thus: Compound was tested for its percentage inhibitory effect on the growth of DLD-1 tumor cell line from colon at an iv dose of 15 mg/kg x14. The format is functional, Homo sapiens.
Assay [7] concerns PAM12. Put plainly: Compound was tested for its percentage inhibitory effect on the growth of PAN-12 tumor cell line from […] at an iv dose of 15 mg/kg x14. The assay is classed as functional, Homo sapiens.
Assay [8] has as its system Co-3. Put plainly: Compound was tested for its percentage inhibitory effect on the growth of CO-3 tumor cell line from colon at an iv dose of 15 mg/kg x14. The format is functional, Homo sapiens.
Assay [9] concerns KM12. Put plainly: Compound was tested for its percentage inhibitory effect on the growth of KM12C tumor cell line from colon at an iv dose of 15 mg/kg x14. The assay is classed as functional, Homo sapiens.
Assay [10] concerns DLD-1. The assay can be described thus: Compound was tested for its percentage inhibitory effect on the growth of DLD-1 tumor cell line from colon at an iv dose of 2 mg/kg x10. The assay is classed as functional, Homo sapiens.
Assay [11] has as its system KM12. The assay can be described thus: Compound was tested for its percentage inhibitory effect on the growth of KM12C tumor cell line from colon at an iv dose of 2 mg/kg x10. The format is functional, Homo sapiens.
Assay [12] deals with Co-3. The assay can be described thus: Compound was tested for its percentage inhibitory effect on the growth of CO-3 tumor cell line from colon at an iv dose of 2 mg/kg x10. The format is functional, Homo sapiens.
In assay [13] the test system is PAM12. Put plainly: Compound was tested for its percentage inhibitory effect on the growth of PAN-12 tumor cell line from […] at an iv dose of 2 mg/kg x10. The assay is classed as functional, Homo sapiens.
Assay [14] concerns BXPC-3. The assay can be described thus: Compound was tested for its percentage inhibitory effect on the growth of BxPC-3 tumor cell line from […] at an iv dose of 2 mg/kg x10. The format is functional, Homo sapiens.
Assay [15] has as its system H-81. Put plainly: Compound was tested for its percentage inhibitory effect on the growth of H-81 tumor cell line from stomach at an iv dose of 2 mg/kg x10. The assay is classed as functional, Homo sapiens.
The test system of assay [16] is AZ-521 cell line. The assay can be described thus: Compound was tested for its percentage inhibitory effect on the growth of AZ-521 tumor cell line from stomach at an iv dose of 2 mg/kg x10. The format is functional, Homo sapiens.

Structures are written as SMILES.

On to `O=c1[nH]c(=O)n([C@@H]2O[C@H](CO)[C@@H](O)[C@H]2O)cc1F` [5-FLUOROURIDINE], for which the IC50 in the assay with PANC-1 amounted to 11000 nM; with SNU-C2A, 45 nM; with MKN-28, 28 nM; with SW48, 16 nM; in the assay on DLD-1 [1], 73 nM; in the assay with AZ-521 cell line [2], 50 nM. For the same compound, the half-maximal inhibitory concentration (IC50) in the assay with A549 was determined as 1900 nM; in the assay with COLO 320DM, 5.4 nM; in the assay on HT-1080, 41 nM; in the assay with MKN-45 it was 26 nM; with T-24 it was 14 nM; in the assay with NUGC-3 it was 22 nM. Also, the IC50 came to 47 nM in the assay on HCT-15 and 16 nM in the assay with KKLS.
As for `O=c1[nH]cc(F)c(=O)[nH]1` [FLUOROURACIL], the half-maximal inhibitory concentration (IC50) with PANC-1 is > 78000 nM; in the assay on SNU-C2A, 2700 nM; in the assay with MKN-28, 2500 nM; in the assay with SW48, 5700 nM; in the assay on DLD-1 [1], 6000 nM; with AZ-521 cell line [2] it was 3900 nM. In addition, the IC50 in the assay with A549 amounted to 1700 nM; with COLO 320DM, 1100 nM; in the assay with MKN-45 it was 3000 nM; with T-24 it was 22000 nM; in the assay with NUGC-3, 4400 nM; with HCT-15 it was 5700 nM. This compound also displayed an IC50 with KKLS of 6200 nM. In addition, the Tumor inhibition ratio with AZ-521 cell line [3] is on record as 25%; in the assay with H-81 [4], 83%; in the assay on BXPC-3 [5] it was 50%; in the assay on DLD-1 [6], 50%; in the assay on PAM12 [7] it was 40%; in the assay on Co-3 [8], 49%. Besides, in the assay on KM12 [9], the Tumor inhibition ratio turned out to be 59%.
Take `C#C[C@]1(O)[C@@H](CO)O[C@@H](n2ccc(=O)[nH]c2=O)[C@@H]1O`: the IC50 with PANC-1 came to 11000 nM; in the assay with SNU-C2A it was 18 nM; in the assay with MKN-28 it was 80 nM; in the assay with SW48, 120 nM; with DLD-1 [1] it was 66 nM; in the assay on AZ-521 cell line [2], 36 nM. Moreover, the IC50 with A549 worked out at 29 nM; in the assay on COLO 320DM, 60 nM; in the assay on HT-1080 it was 24 nM; in the assay on MKN-45, 24 nM; with T-24, 34 nM; with NUGC-3 it was 34 nM. For the same compound, the IC50 in the assay with HCT-15 was found to be 43 nM; in the assay on KKLS, 190 nM. Also, the Tumor inhibition ratio came out at 73% in the assay on DLD-1 [10]; 81% with KM12 [11]; 90% with Co-3 [12]; 81% in the assay with PAM12 [13]; 35% in the assay on BXPC-3 [14]; 92% with H-81 [15]. Moreover, the Ratio with AZ-521 cell line [16] is 81.
As to `O=c1[nH]c(=O)n([C@H]2C[C@H](O)[C@@H](CO)O2)cc1F` [FLOXURIDINE], the IC50 in the assay on PANC-1 is > 40000 nM; with SNU-C2A it was 3.3 nM; with MKN-28, 120 nM; in the assay on SW48, 130 nM; with DLD-1 [1] it was 92 nM; in the assay with AZ-521 cell line [2] it was 50 nM. Moreover, the IC50 was determined as 1000 nM with A549; 650 nM in the assay on COLO 320DM; 120 nM in the assay on HT-1080; 3500 nM with MKN-45; 120 nM in the assay on T-24; 15 nM with NUGC-3. In addition, the IC50 in the assay on HCT-15 came to 49 nM; in the assay on KKLS it was 760 nM.
